Data on 1 compound can be found in ChEMBL document CHEMBL3997763 (Medchemcomm, 2016).

The subject of series [1] is Rattus norvegicus. The experiment in a line: Antihyperlipidemic activity in triton WR-1339 induced Charles Foster rat hyperlipidemia model assessed as inhibition of triglyceride level in serum at 150 mg/kg, po administered simultaneously with triton WR-1339 after 18 hrs by enzymatic method relative to control. It counts as functional.
Series [2] deals with Rattus norvegicus. The experiment in a line: Hypolipidemic activity in HFD-induced Charles Foster rat assessed as increase in LCAT activity at 100 mg/kg administered as single dose via oral gavage for 30 days simultaneously with high fat diet by photometric method. It is filed as functional, organism-based.
Series [3] deals with Rattus norvegicus. Put plainly: Hypolipidemic activity in HFD-induced Charles Foster rat chronic hyperlipidemia model assessed as reduction in liver total cholesterol level at 100 mg/kg administered via oral gavage for 30 days simultaneously with high fat diet by enzymatic method relative to HFD treated vehicle. The conditions noted are these: 720 h. It counts as functional.

The next series relates to Liver. Put plainly: Intrinsic clearance in Sprague-Dawley rat liver microsomes at 10 uM in absence of NADPH after 5 to 90 mins by LC-MS/MS analysis. It counts as ADME, microsome. (Liver microsomes are a subcellular fraction often used to study metabolism.)
The subject of series [4] is Rattus norvegicus. Put plainly: Hypolipidemic activity in HFD-induced Charles Foster rat chronic hyperlipidemia model assessed as reduction in liver triglyceride level at 100 mg/kg administered via oral gavage for 30 days simultaneously with high fat diet by enzymatic method relative to HFD treated vehicle. It counts as functional. The conditions noted are these: 720 h.

The subject of series [5] is Rattus norvegicus. The experiment in a line: Hypolipidemic activity in HFD-induced Charles Foster rat assessed as inhibition of hepatic HMG-CoA reductase activity by measuring […] at 100 mg/kg administered as single dose via oral gavage for 30 days simultaneously with high fat diet by colorimetric method. It counts as functional, organism-based.

Series [6] relates to Rattus norvegicus. Put plainly: Hypolipidemic activity in HFD-induced Charles Foster rat assessed as increase in lipolytic activity of LPL in liver at 100 mg/kg administered as single dose via oral gavage for 30 days simultaneously with high fat diet. It is filed as functional, organism-based.
Series [7] relates to Rattus norvegicus. The experiment in a line: Hypolipidemic activity in HFD-induced Charles Foster rat assessed as reduction in serum VLDL-TC at 100 mg/kg administered as single dose via oral gavage for 30 days simultaneously with high fat diet. It counts as functional, organism-based.
The subject of series [8] is Rattus norvegicus. The experiment in a line: Hypolipidemic activity in HFD-induced Charles Foster rat chronic hyperlipidemia model assessed as reduction in serum triglyceride level at 100 mg/kg administered via oral gavage for 30 days simultaneously with high fat diet by enzymatic method relative to HFD treated vehicle. It counts as functional. The conditions noted are these: 720 h.

Series [9] is described as follows: Stability of the compound in simulated gastric fluid at 10 uM up to 60 mins by LC-MS/MS analysis.
In series [10] the target is T1, 3-hydroxy-3-methylglutaryl-coenzyme A reductase (Homo sapiens) (UniProt P04035).
T1 sequence (whole entry): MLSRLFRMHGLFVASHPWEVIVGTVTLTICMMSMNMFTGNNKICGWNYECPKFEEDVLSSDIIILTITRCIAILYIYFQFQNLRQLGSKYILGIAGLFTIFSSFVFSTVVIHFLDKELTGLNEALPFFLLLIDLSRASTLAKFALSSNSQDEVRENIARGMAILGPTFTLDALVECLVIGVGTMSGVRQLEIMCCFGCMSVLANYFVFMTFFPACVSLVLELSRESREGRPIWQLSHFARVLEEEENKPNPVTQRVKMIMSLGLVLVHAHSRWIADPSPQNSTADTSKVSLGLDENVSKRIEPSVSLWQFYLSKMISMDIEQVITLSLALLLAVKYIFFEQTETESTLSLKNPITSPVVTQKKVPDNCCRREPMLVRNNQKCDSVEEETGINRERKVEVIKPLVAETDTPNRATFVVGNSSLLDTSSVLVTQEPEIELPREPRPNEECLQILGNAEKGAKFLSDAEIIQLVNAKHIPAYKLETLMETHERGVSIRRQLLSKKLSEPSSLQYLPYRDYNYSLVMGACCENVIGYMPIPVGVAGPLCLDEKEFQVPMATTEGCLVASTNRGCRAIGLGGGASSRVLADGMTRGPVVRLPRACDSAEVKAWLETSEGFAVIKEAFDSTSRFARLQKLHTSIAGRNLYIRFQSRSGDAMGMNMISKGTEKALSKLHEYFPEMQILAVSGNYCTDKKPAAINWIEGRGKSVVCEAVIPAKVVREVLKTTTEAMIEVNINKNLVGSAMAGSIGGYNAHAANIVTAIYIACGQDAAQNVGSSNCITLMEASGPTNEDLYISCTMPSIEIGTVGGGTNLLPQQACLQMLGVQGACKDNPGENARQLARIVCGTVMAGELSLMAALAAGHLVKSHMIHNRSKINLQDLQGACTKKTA
Put plainly: Inhibition of human HMG-CoA reductase catalytic domain at 20 uM using HMG-CoA as substrate in presence of NADPH by colorimetric method relative to control.

Series [11] in a line: Apparent MRT in Sprague-Dawley rat at 100 mg/kg, po administered as single dose by LC-MS/MS analysis. The conditions noted are these: in vivo. It counts as ADME, organism-based.
Series [12] concerns Rattus norvegicus. Put plainly: Antihyperlipidemic activity in triton WR-1339 induced Charles Foster rat hyperlipidemia model assessed as increase in HDL-C level in serum at 150 mg/kg, po administered simultaneously with triton WR-1339 after 18 hrs by enzymatic method relative to control. It is filed as functional.
Series [13] deals with Rattus norvegicus. Put plainly: Hypolipidemic activity in HFD-induced Charles Foster rat chronic hyperlipidemia model assessed as increase in fecal excretion of cholic acid at 100 mg/kg administered via oral gavage for 30 days simultaneously with high fat diet by enzymatic method relative to HFD treated vehicle. It is filed as functional.
In series [14] the test system is Rattus norvegicus. The experiment in a line: Toxicity in HFD-induced Charles Foster rat chronic hyperlipidemia model assessed as food intake at 100 mg/kg administered via oral gavage for 30 days simultaneously with high fat diet (reference value: 9.81 +/- 0.61 g/day). It counts as organism-based. The conditions noted are these: in vivo, 720 h.
The target of series [15] is T1, 3-hydroxy-3-methylglutaryl-coenzyme A reductase (Homo sapiens). Put plainly: Inhibition of human HMG-CoA reductase catalytic domain at 5 uM using HMG-CoA as substrate in presence of NADPH by colorimetric method relative to control.
A short description of series [16]: Apparent oral clearance in Sprague-Dawley rat at 100 mg/kg administered as single dose by LC-MS/MS analysis. It counts as ADME, organism-based. The conditions noted are these: in vivo.
Series [17] concerns Rattus norvegicus. Put plainly: Hypolipidemic activity in HFD-induced Charles Foster rat assessed as increase in human I125-LDL binding to rat liver plasma membrane at 100 mg/kg administered as single dose via oral gavage for 30 days simultaneously with high fat diet by minigamma counting. It counts as functional, organism-based.
For series [18], the target named is T1, 3-hydroxy-3-methylglutaryl-coenzyme A reductase (Homo sapiens). The experiment in a line: Inhibition of human HMG-CoA reductase catalytic domain at 10 uM using HMG-CoA as substrate in presence of NADPH by colorimetric method relative to control.
The nature of series [19]: Stability of the compound in simulated intestinal fluid at 10 uM up to 120 mins by LC-MS/MS analysis.
For series [20], the system named is Rattus norvegicus. The experiment in a line: Hypolipidemic activity in HFD-induced Charles Foster rat assessed as increase in serum HDL-TC at 100 mg/kg administered as single dose via oral gavage for 30 days simultaneously with high fat diet. It counts as functional, organism-based.
The target in series [21] is T1, 3-hydroxy-3-methylglutaryl-coenzyme A reductase (Homo sapiens). Put plainly: Inhibition of human HMG-CoA reductase catalytic domain at 50 uM using HMG-CoA as substrate in presence of NADPH by colorimetric method relative to control.
Series [22] is described as follows: Tmax in Sprague-Dawley rat at 100 mg/kg, po administered as single dose by LC-MS/MS analysis. It counts as ADME, organism-based. The conditions noted are these: in vivo.
The nature of series [23]: AUC (0 to infinity) in Sprague-Dawley rat at 100 mg/kg, po administered as single dose by LC-MS/MS analysis. It counts as ADME, organism-based. More on the design: dose 100 mg/kg, time infinity, route oral. The conditions noted are these: in vivo.

Active and inactive are the calls of the source. The rule behind the calls is not given here.

In the case of `COc1ccc(-c2cc3cc(C(c4c[nH]c5ccccc45)c4c[nH]c5ccccc45)cc(C(C)(C)C)c3oc2=O)cc1OC`, in the series on Rattus norvegicus [1], the inhibition in vivo – broadly, the relative decrease from the control value, in per cent – at 150 mg/kg stood at 33%. Further, the result in the series with Rattus norvegicus [2], with Rattus norvegicus [6], with Rattus norvegicus [7], in the series with Rattus norvegicus [17] and in the series with Rattus norvegicus [20] was Active. Besides, the inhibition in vivo at 100 mg/kg was found to be 27% in the series on Rattus norvegicus [3], 29% with Rattus norvegicus [4] and 26% in the series with Rattus norvegicus [8]. The compound further registered a CLH in the series on Liver of 5.8 µL/min/mg. Besides, the inhibition (commonly how much of the control response was suppressed) in the series on Rattus norvegicus [5] was “Active”. In addition, the Stability result in series [9] and in [19] was “Stable” each time. The inhibition in series [10] came out at 63%; in series [15] it was 32%; in [18] it was 56%; in series [21], 74%. The MRT (in general, a mean duration of stay, worked out from the concentration-time curve) in series [11] turned out to be 4.46 h. Besides, the Activity is 25% with Rattus norvegicus [12], 31% in the series with Rattus norvegicus [13] and 9.63 g/day in the series on Rattus norvegicus [14]. In series [16], the apparent clearance (CL/F) – broadly, clearance divided by bioavailability, as obtained after extravascular dosing – is 241 L/h/kg. In addition, the Tmax – broadly, the time at which the peak concentration occurs – in series [22] turned out to be 4 h. For the same compound, the AUC(0-inf) (as a rule, total exposure, with the tail of the curve extrapolated) in series [23] was found to be 417 ng·h/mL.
